Data set [1] is described as follows: Hepatotoxicity in Beagle dog assessed as increase in alanine aminotransferase level at 50 mg/kg/day, po administered for 2 weeks. The class given is toxicity, organism-based, Canis lupus familiaris. The following applies: in vivo, 336 h.
Another data set deals with Homo sapiens. Kind of data set: In vivo inhibition of BACE1 in human assessed as reduction in amyloidbeta level at 30 mg administered once daily after 14 days MSD electrochemiluminescent immunoassay relative to control. The class given is functional.
Data set [2] is described as follows: Hepatotoxicity in po dosed Beagle dog assessed as induction of inflammatory cell infiltration of centrilobular hepatocytes at highest dose administered for 2 weeks. The class given is toxicity, organism-based, Canis lupus familiaris. The conditions noted are these: in vivo, 336 h.

One compound from ChEMBL document CHEMBL4321815, “Discovery of an Extremely Potent Thiazine-Based β-Secretase Inhibitor with Reduced Cardiovascular and Liver Toxicity at a Low Projected Human Dose” (J Med Chem, 2019) can be followed below.

Turning to `C[C@@]1(c2cc(NC(=O)c3ccc(C#N)cn3)ccc2F)C=CSC(N)=N1` [ATABECESTAT], the Activity result in data set [1] and in data set [2] was “Toxic” each time. Moreover, in the data set on Homo sapiens, the “inhibition (INH)” value worked out at 80%.
